Source: patent publication US20090170810A1, “METHODS OF TREATMENT OF CARDIOVASCULAR AND CEREBROVASCULAR DISEASES WITH LOW MOLECULAR WEIGHT FUCOIDAN” (Beijing Century Biocom Pharmaceutical Technology Co. Ltd., priority 2006, published 2009)

How the values were obtained:
decapitated mice [1] = test: Breathing time and breathing frequency in decapitated mice; format: in vivo, ICR mice; details: 2 mg/kg, tail i.v., decapitated 15 minutes after administration
Experimental: (§1) ICR mice (equally divided between male and female) were divided randomly in a blank control group, a positive control group and dosage groups of sample A (200, 100, and 50 mg/kg) and sample B (400, 200, 100, 50 mg/kg). The mice in medical groups were administrated by tail intravenous injection, and the dosage was […]. The positive control group was administrated nimodipine (2 mg/kg) by tail intravenous injection. The model group was administrated normal salt. At 15 minutes after administration, the mice were decapitated by a pair of scissors. The mouth breathing time, breathing frequency and brain water content were recorded and compared with other groups.

decapitated mice [2] = test: Brain index and brain water content in decapitated mice; format: in vivo, ICR mice; details: 2 mg/kg
Experimental: as §1
Measurement of brain water content: whole brains were collected, after the wet weight was obtained, they were dried in an oven at 100° C. for 24 hours, the average value was taken to calculate brain water content: brain water content(%)=[…]. Brain index: brain index=brain wet weight (g)/body weight (g)×100%.

brain of ischemic mice = test: Cerebral ischemia in mice with common carotid artery ligation and reperfusion (brain LDH, SOD); format: in vivo; details: 2 mg/kg
Experimental: Experimental grouping: a control group and a model group (respectively administrating an equal volume of normal salt), a positive control group (nimodipine, 2 mg/kg), sample A groups (200, 100, and 50 mg/kg), and sample B groups (200, 100, and 50 mg/kg), the injection dosage being […].
Animal model setup: the grouped mice were respectively administrated test substance, nimodipine or normal salt by tail intravenous injection. After 15 minutes, the mice were anesthetized with 3.5% chloral hydrate, fixed in the back. The right and left common carotid artery and vagus nerve were exposed, and 4-0 suture was inserted under the bilateral carotid arteries. The line was tightened to block blood flow for 5 minutes. Then the line was loosened to make the blood reperfusion for 10 minutes. The operation was repeated three times, and an ischemia-reperfusion model in mice was established. After the last reperfusion, the mice were decapitated and brain collected. In the control group, only the bilateral carotid arteries were exposed, without line being inserted.

With `COCCOC(=O)C1=C(C)NC(C)=C(C(=O)OC(C)C)C1c1cccc([N+](=O)[O-])c1` (stereo not drawn) [Nimodipine, nimodipine] the “Breathing frequency (times)” value (decapitated mice [1]) was 17.0 ± 3.2 times, the “Breathing time” value (decapitated mice [1]) was 23.8 ± 3.2 s and the “Brain index (%)” value (decapitated mice [2]) was 1.40 ± 0.14 %. The “Brain water content (%)” value (decapitated mice [2]) was 75.1 ± 0.9 %, the “LDH (U/mg)” value (brain of ischemic mice) was 11.3 ± 6.6 U/mg and the “SOD (U/mg)” value (brain of ischemic mice) was 144.77 ± 21.61 U/mg.
